Assay results reported in ChEMBL document CHEMBL1909046, “DrugMatrix in vitro pharmacology data”.

Legend:
Cytochrome P450 1A2 = target: T1, Cytochrome P450 1A2 (Homo sapiens, UniProt P05177); conditions: bti-tn-5b1-4; further: in other assays of this panel Not Active means under 50% inhibition at 10 µM
T1 sequence (P05177 whole entry): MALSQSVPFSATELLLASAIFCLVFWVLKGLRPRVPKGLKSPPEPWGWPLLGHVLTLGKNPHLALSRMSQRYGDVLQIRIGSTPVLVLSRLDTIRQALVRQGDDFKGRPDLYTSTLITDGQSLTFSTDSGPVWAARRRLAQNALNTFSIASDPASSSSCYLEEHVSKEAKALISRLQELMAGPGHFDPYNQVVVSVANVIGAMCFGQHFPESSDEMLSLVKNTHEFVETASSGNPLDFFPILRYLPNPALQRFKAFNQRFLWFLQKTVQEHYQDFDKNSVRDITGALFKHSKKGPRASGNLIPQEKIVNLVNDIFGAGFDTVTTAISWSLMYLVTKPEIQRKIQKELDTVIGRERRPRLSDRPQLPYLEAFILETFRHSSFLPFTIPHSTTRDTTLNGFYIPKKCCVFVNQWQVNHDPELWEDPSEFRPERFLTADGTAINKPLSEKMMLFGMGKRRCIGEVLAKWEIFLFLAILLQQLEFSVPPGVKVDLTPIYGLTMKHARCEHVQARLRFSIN

[1] = target: T2, Nitric oxide synthase, inducible (Mus musculus, UniProt P29477); parameters: species or system Escherichia coli;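 further: inhibition of iNOS enzyme activity measured with L-arginine as substrate; in other assays of this panel Not Active means under 50% inhibition at 10 µM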
T2 sequence (P29477 whole entry): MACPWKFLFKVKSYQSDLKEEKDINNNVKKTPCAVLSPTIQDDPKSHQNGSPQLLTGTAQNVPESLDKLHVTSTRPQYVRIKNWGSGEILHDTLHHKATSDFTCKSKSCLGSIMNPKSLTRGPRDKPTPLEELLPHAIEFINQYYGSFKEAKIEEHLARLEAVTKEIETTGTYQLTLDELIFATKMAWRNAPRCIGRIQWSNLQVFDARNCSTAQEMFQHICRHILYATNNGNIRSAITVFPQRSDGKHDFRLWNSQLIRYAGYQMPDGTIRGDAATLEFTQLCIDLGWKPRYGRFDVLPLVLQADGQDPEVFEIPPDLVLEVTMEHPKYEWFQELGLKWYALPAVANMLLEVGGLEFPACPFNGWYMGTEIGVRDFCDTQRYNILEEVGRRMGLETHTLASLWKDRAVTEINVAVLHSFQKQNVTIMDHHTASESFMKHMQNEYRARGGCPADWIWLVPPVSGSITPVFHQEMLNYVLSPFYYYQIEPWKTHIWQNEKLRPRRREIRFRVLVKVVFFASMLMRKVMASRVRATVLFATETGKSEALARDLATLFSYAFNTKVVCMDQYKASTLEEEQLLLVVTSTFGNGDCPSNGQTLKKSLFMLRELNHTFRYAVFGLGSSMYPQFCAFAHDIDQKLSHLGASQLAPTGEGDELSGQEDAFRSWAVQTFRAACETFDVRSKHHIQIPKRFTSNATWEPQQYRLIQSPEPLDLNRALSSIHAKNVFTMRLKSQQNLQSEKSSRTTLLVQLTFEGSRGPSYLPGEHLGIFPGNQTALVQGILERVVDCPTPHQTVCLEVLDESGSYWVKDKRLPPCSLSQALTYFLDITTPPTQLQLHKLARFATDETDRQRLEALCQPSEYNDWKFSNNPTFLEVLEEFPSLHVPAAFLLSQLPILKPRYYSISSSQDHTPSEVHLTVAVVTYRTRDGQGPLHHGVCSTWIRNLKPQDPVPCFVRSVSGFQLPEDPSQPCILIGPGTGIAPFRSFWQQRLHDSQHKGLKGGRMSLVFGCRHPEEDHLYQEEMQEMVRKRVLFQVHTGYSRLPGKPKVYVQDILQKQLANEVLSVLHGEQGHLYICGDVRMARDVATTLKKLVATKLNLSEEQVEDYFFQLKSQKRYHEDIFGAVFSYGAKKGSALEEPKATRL

[2] = target: Tyrosine-protein kinase Lck (Homo sapiens, UniProt P06239); assay: DRUGMATRIX: Protein Tyrosine Kinase, LCK enzyme inhibition (substrate: Poly(Glu:Tyr)); format: cell-based, Insect cells; conditions: insect cells; Not Active = under 50% inhibition at 10 µM
Tyrosine-protein kinase Lck, sequence (P06239 whole entry): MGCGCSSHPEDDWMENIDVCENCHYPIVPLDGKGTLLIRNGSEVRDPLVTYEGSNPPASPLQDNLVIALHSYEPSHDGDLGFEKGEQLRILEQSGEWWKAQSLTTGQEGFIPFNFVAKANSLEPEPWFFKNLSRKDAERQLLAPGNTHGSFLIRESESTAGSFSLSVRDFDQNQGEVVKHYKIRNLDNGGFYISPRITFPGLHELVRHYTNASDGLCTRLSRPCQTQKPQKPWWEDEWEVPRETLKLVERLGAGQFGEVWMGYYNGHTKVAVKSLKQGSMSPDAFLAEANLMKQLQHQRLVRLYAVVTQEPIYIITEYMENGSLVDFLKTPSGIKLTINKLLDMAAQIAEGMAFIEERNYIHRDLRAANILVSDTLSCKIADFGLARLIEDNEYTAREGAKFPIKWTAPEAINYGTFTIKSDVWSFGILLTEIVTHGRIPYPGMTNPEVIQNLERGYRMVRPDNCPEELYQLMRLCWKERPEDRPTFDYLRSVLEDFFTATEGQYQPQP

Cytochrome P450 2C19 = Cytochrome P450 2C19 (Homo sapiens, UniProt P33261); conditions: bti-tn-5b1-4; further: in other assays of this panel Not Active means under 50% inhibition at 10 µM
Cytochrome P450 2C19, sequence (P33261 whole entry): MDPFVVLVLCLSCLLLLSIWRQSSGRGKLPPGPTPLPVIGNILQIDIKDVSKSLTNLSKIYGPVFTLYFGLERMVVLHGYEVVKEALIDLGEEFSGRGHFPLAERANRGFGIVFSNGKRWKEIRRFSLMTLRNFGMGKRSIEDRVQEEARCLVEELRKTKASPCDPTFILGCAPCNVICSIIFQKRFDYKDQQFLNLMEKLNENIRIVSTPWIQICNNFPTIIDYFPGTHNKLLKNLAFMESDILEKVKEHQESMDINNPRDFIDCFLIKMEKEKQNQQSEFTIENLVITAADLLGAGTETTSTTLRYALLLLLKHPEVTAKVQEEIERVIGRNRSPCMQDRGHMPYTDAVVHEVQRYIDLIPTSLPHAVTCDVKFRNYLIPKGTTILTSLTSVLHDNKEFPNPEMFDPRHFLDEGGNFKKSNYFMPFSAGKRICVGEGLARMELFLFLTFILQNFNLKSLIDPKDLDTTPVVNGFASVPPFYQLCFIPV

[3] = target: T3, Polyunsaturated fatty acid lipoxygenase ALOX15 (Oryctolagus cuniculus, UniProt P12530); assay: biochemical; format: tissue-based, Reticulocytes; conditions: reticulocytes;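 further: inhibition of 15-lipoxygenase enzyme activity measured with linoleic acid as the substrate; in other assays of this panel Not Active means under 50% inhibition at 10 µM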
T3 sequence (P12530 whole entry): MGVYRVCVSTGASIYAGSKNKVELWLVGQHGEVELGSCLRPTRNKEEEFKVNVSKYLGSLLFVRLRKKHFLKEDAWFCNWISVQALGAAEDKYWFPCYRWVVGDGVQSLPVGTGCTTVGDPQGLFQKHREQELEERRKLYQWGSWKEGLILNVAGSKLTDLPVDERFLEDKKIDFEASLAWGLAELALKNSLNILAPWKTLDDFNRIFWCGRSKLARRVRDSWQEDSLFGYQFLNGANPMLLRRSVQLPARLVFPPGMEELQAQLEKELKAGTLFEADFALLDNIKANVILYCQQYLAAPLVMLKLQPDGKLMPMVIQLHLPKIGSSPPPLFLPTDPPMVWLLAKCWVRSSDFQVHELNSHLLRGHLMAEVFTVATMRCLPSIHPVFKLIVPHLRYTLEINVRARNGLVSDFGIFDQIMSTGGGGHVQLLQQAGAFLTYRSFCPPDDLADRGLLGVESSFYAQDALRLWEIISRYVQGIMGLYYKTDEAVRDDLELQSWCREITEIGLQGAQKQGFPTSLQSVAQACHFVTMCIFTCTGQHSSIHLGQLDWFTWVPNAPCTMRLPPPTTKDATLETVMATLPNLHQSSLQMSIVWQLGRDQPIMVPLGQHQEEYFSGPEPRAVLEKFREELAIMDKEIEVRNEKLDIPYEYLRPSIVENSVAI

Mu-type opioid receptor = Mu-type opioid receptor (Homo sapiens, UniProt P35372); assay: DRUGMATRIX: Opiate mu (OP3, MOP) radioligand binding (ligand: [3H] Diprenorphine); format: cell membranes, CHO-K1, Membrane; conditions: cho-k1; Not Active = under 50% inhibition at 10 µM
Mu-type opioid receptor, sequence (P35372 whole entry): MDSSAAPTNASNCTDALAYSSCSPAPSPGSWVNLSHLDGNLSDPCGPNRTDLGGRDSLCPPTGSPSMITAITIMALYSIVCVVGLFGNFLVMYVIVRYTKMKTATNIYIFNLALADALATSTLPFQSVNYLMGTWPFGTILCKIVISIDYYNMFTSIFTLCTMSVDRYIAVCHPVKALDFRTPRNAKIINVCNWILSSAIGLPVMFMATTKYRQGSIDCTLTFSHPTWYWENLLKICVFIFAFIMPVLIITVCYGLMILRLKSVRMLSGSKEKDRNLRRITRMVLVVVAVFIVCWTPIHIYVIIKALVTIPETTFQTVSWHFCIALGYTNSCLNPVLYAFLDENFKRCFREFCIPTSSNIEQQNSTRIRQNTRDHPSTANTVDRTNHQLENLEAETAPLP

CC[C@]1(O)C[C@@H]2CN(CCc3c([nH]c4ccccc34)[C@@](C(=O)OC)(c3cc4c(cc3OC)N(C)[C@H]3[C@@](O)(C(N)=O)[C@H](O)[C@]5(CC)C=CCN6CC[C@]43[C@@H]65)C2)C1 [VINDESINE]
Not Active: IC50 (Cytochrome P450 1A2) | Ki (Cytochrome P450 1A2) | IC50 [1] | IC50 [2] | IC50 (Cytochrome P450 2C19) | Ki (Cytochrome P450 2C19) | IC50 [3] | IC50 (Mu-type opioid receptor)

CCN(C(C)=O)c1cccc(-c2ccnc3c(C#N)cnn23)c1 [ZALEPLON]
Not Active: IC50 (Cytochrome P450 1A2) | Ki (Cytochrome P450 1A2) | IC50 [1] | IC50 [2] | IC50 (Cytochrome P450 2C19) | Ki (Cytochrome P450 2C19) | IC50 [3] | IC50 (Mu-type opioid receptor)
